Assay results from PubChem BioAssay (NCI).
Values joined by “and” are separate entries in the source; they are usually repeats but may differ in a detail not shown here. Identical values can stand only once.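 1) Cells in 96-well plates. 2) Compound, 48 h, 5 concentrations. 3) Linear interpolation between surrounding doses. 4) Unreached endpoint = highest concentration. GI50 = concentration required for 50% inhibition of growth. The concentration for full growth arrest is given as TGI.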

System: BT-549 breast
Experiment: inhibition of tumour cell growth, NCI panel, 48 h

Row | SMILES | GI50 | TGI
1 | COc1cccc(C2CC(c3cc(OC)c(OC)c(OC)c3)=NN2)c1 (stereo not given) | 3.35 µM | 19.1 µM
2 | Cc1ccc(C(=O)N(CCCN)[C@@H](c2nc3cc(Cl)ccc3c(=O)n2Cc2ccccc2)C(C)C)cc1 | 0.043 µM and 0.0103 µM | 2.94 µM and 1.67 µM
3 | CCCN(CCC)CCCNCc1cc(I)cc(C)c1O | 12.3 µM | 24.8 µM
4 | CC(C)(C)OC(=O)NCCNC1=CC(=O)c2nc3ccccc3c3ccnc1c23 | 20.5 µM | 51.7 µM
5 | C=C(Cn1c(=O)c2ccccc2c2ccccc21)c1ccc(C(=O)Nc2ccccc2N)cc1 | 14.8 µM | 97.7 µM
6 | O=C(/C=C/c1ccc(B(O)O)cc1)/C=C/c1ccc(B(O)O)cc1 | 1.55 µM | 3.35 µM
7 | CC(=O)N1CCN(C2=Nc3ccccc3CO2)C1=S | 40.1 µM | > 100 µM
8 | O=S(=O)(Nc1ncccn1)c1ccc(N=Nc2ccc(O)c3ncccc23)cc1 | 10.7 µM | 27 µM
9 | Cc1nc2ccc(CN(C)c3ccc(C(=O)N[C@@H](CCC(=O)O)C(=O)O)s3)cc2c(=O)[nH]1 |  | > 100 µM
10 | Cc1nc2sccn2c1/C=C1/C(=O)Nc2ccccc21 | 17.2 µM | > 100 µM
11 | C=C1C(=O)O[C@H]2[C@H]1CC/C(CNC(=O)/C=C/c1ccc(Br)cc1)=C\CC[C@@]1(C)O[C@@H]21 | 1.14 µM | 2.95 µM
12 | COc1cc(/C(Cl)=C/C=C/C(=O)c2c(C)[n+]([O-])c3ccc(Cl)cc3[n+]2[O-])cc(OC)c1OC | 6.47 µM | 39.4 µM
13 | O=C(Nc1ccc(Cl)cc1Cl)c1ccc(NC2=C(Cl)C(=O)N(Cc3ccccc3)C2=O)cc1 | 15.6 µM | 30 µM
14 | CC(=O)C1=C(O)C=C2Oc3c(C(=O)/C=C/c4cc(C(F)(F)F)cc(C(F)(F)F)c4)c(O)c(C)c(O)c3[C@]2(C)C1=O | 0.492 µM | 1.8 µM
15 | C(=Nc1ccccc1)C1CCCC[N-]1.C(=Nc1ccccc1)C1CCCC[N-]1.[Cu+2].[O-][Cl+3]([O-])([O-])O (stereo not given) | 18.5 µM | 55.8 µM
16 | O=P([O-])(O)OP(=O)([O-])O.[NH-][C@H]1CCCC[C@@H]1[NH-].[OH-].[OH-].[Pt+4] | 24.3 µM | 47.9 µM
17 | COc1cc(C(=O)OCCCCCCCCCCC[P+](c2ccccc2)(c2ccccc2)c2ccccc2)ccc1O | 0.271 µM | 1.26 µM

Row | SMILES | GI50 | TGI
18 | COc1ccc(-c2[nH]ncc2-c2cc3c(c(OC)c2)OCC(=O)N3)cc1 | 0.469 µM | 41.5 µM
19 | CC(C)[C@](O)(c1ccc2cc(OC(F)F)c(OC(F)F)cc2c1)c1cn[nH]n1 | 15.6 µM and 13.3 µM | 31.1 µM and 28.5 µM
20 | C=CC(=O)Nc1ccc(Nc2nccc(-c3ccc(N4CCCC4)c(C#N)c3)n2)cc1 | > 25 µM | > 25 µM
21 | CC/C(Cc1ccccc1)=C(\c1ccc(OCCN2CCCCCC2)cc1)c1ccc(OC(=O)NCc2ccccc2)cc1 | 6.74 µM | 14.1 µM
22 | CNC(=O)c1cc(COc2nnc(Nc3ccc(Cl)cc3)c3ccoc23)ccn1 | 3.53 µM and > 10 µM | 16.6 µM and > 10 µM
23 | Cc1c2cnccc2c(C)c2c1c1cc(C3OCCCO3)ccc1n2C | 0.52 µM | 2.11 µM
24 | CO[C@H](C(=O)[C@@H](O)[C@@H](C)O)[C@@H]1Cc2cc3cc(O[C@H]4C[C@@H](O[C@H]5C[C@@H](O)[C@H](O)C(C)O5)[C@H](O)C(C)O4)c(C)c(O)c3c(O)c2C(=O)[C@H]1O[C@H]1C[C@@H](O[C@H]2C[C@@H](O[C@H]3C[C@@H](OC)[C@H](O)C(C)O3)[C@@H](O)C(C)O2)C(O)(O)C(C)O1 (stereo not given in full) | 0.107 µM | 1.64 µM
25 | Cn1cc(-c2nonc2-c2c[nH]c3ccccc23)c2ccccc21 | 0.588 µM | 7.78 µM
26 | COc1ccc(C#Cc2ccccc2C#CCCCCO)cc1 | 21.1 µM | 46.1 µM
27 | COC(=O)[C@@H](NC(=O)NC(=O)NC(=O)CI)C(C)C | 11.5 µM | 23.7 µM
28 | CN1CCN(c2ccc(C(=O)Nc3n[nH]c4ccc(Cc5cc(F)cc(F)c5)cc34)c(NC3CCOCC3)c2)CC1 | 5.61 µM and 1.8 µM | > 10 µM and 3.28 µM
29 | CC1=C([Se]CC(OC(=O)[C@@H](CSSC(C)(C)C)NC(=O)OC(C)(C)C)C(=O)NC(C)(C)C)C(=O)c2ccccc2C1=O (stereo not given in full) | 1.24 µM | 2.5 µM
30 | O=C(c1ccccc1)c1c(NCC(O)CN2CCCC2)n(Cc2ccccc2)c(=O)n(Cc2ccccc2)c1=O (stereo not given) | 13.1 µM | 27 µM
31 | Cc1[nH]ncc1-c1cc2nc(C3CC4CCN3CC4)[nH]c(=O)c2s1 (stereo not given) | 2.59 µM | 29.6 µM
32 | O=[N+]([O-])c1ccc(Nc2ccccc2-c2ccccc2)c2nonc12 | 11.5 µM | 28.8 µM
33 | Nc1ccn(C2OC(CO)C(O)C2F)c(=O)n1 (stereo not given) | > 5000 µM | > 5000 µM
